Experimental data published in PubChem BioAssay AID1259407 (Chemical Carcinogenesis Research Information System (CCRIS), 2018).
Activity calls are given as the source filed them. The rule behind the calls is not given here.

Test system: CCRIS mutagenicity, Ames/micronucleus/aberration tests
Assay: CCRIS mutagenicity studies
[1] = Test System: AMES SALMONELLA TYPHIMURIUM, Strain/Indicator: TA97, Metabolic Activation: NONE, Method: PREINCUBATION
[2] = Test System: AMES SALMONELLA TYPHIMURIUM, Strain/Indicator: TA98, Metabolic Activation: NONE, Method: STANDARD PLATE
[3] = Test System: AMES SALMONELLA TYPHIMURIUM, Strain/Indicator: TA100, Metabolic Activation: NONE, Method: STANDARD PLATE
[4] = Test System: AMES SALMONELLA TYPHIMURIUM, Strain/Indicator: TA102, Metabolic Activation: NONE, Method: PREINCUBATION
[5] = Test System: AMES SALMONELLA TYPHIMURIUM, Strain/Indicator: TA102, Metabolic Activation: RAT, LIVER, S-9, AROCLOR 1254, Method: PREINCUBATION

O=C(O)O
mutagenic call [1]: inactive; negative | mutagenic call (Test System: AMES SALMONELLA TYPHIMURIUM, Strain/Indicator: TA97, Metabolic Activation: RAT, LIVER, S-9, AROCLOR 1254, Method: PREINCUBATION): inactive; negative | mutagenic call (Test System: AMES SALMONELLA TYPHIMURIUM, Strain/Indicator: TA98, Metabolic Activation: HAMSTER, LIVER, S-9, AROCLOR 1254, Method: STANDARD PLATE): inactive; negative | mutagenic call [2]: inactive; negative | mutagenic call (Test System: AMES SALMONELLA TYPHIMURIUM, Strain/Indicator: TA98, Metabolic Activation: RAT, LIVER, S-9, AROCLOR 1254, Method: STANDARD PLATE): inactive; negative | mutagenic call (Test System: AMES SALMONELLA TYPHIMURIUM, Strain/Indicator: TA100, Metabolic Activation: HAMSTER, LIVER, S-9, AROCLOR 1254, Method: STANDARD PLATE): inactive; negative | mutagenic call [3]: inactive; negative | mutagenic call (Test System: AMES SALMONELLA TYPHIMURIUM, Strain/Indicator: TA100, Metabolic Activation: RAT, LIVER, S-9, AROCLOR 1254, Method: STANDARD PLATE): inactive; negative | mutagenic call [4]: inactive; negative | mutagenic call [5]: inactive; negative | mutagenic call (Test System: AMES SALMONELLA TYPHIMURIUM, Strain/Indicator: TA1535, Metabolic Activation: HAMSTER, LIVER, S-9, AROCLOR 1254, Method: STANDARD PLATE): inactive; negative | mutagenic call (Test System: AMES SALMONELLA TYPHIMURIUM, Strain/Indicator: TA1535, Metabolic Activation: NONE, Method: STANDARD PLATE): inactive; negative | mutagenic call (Test System: AMES SALMONELLA TYPHIMURIUM, Strain/Indicator: TA1535, Metabolic Activation: RAT, LIVER, S-9, AROCLOR 1254, Method: STANDARD PLATE): inactive; negative | mutagenic call (Test System: AMES SALMONELLA TYPHIMURIUM, Strain/Indicator: TA1537, Metabolic Activation: HAMSTER, LIVER, S-9, AROCLOR 1254, Method: STANDARD PLATE): inactive; negative | mutagenic call (Test System: AMES SALMONELLA TYPHIMURIUM, Strain/Indicator: TA1537, Metabolic Activation: NONE, Method: STANDARD PLATE): inactive; negative | mutagenic call (Test System: AMES SALMONELLA TYPHIMURIUM, Strain/Indicator: TA1537, Metabolic Activation: RAT, LIVER, S-9, AROCLOR 1254, Method: STANDARD PLATE): inactive; negative | mutagenic call (Test System: AMES SALMONELLA TYPHIMURIUM, Strain/Indicator: TA1538, Metabolic Activation: HAMSTER, LIVER, S-9, AROCLOR 1254, Method: STANDARD PLATE): inactive; negative | mutagenic call (Test System: AMES SALMONELLA TYPHIMURIUM, Strain/Indicator: TA1538, Metabolic Activation: NONE, Method: STANDARD PLATE): inactive; negative | mutagenic call (Test System: AMES SALMONELLA TYPHIMURIUM, Strain/Indicator: TA1538, Metabolic Activation: RAT, LIVER, S-9, AROCLOR 1254, Method: STANDARD PLATE): inactive; negative | mutagenic call (Test System: CHINESE HAMSTER V-79, Strain/Indicator: V-79/6-THIOGUANINE, Metabolic Activation: NONE): active; positive | mutagenic call (Test System: CHINESE HAMSTER V-79, Strain/Indicator: V-79/6-THIOGUANINE, Metabolic Activation: S-9): inactive; negative | mutagenic call (Test System: Mouse lymphoma, Strain/Indicator: L5178Y (tk+/tk-), Metabolic Activation: None, Method: Suspension/plate): inactive; negative | mutagenic call (Test System: Mouse lymphoma, Strain/Indicator: L5178Y (tk+/tk-), Metabolic Activation: Rat, Liver, S-9, Aroclor 1254, Method: Suspension/plate): inactive; negative

Cc1ccco1
mutagenic call [1]: inactive; negative | mutagenic call (Test System: AMES SALMONELLA TYPHIMURIUM, Strain/Indicator: TA98, Metabolic Activation: HAMSTER, LIVER, S-9, AROCLOR 1254 (10%), Method: PREINCUBATION): inactive; negative | mutagenic call (Test System: AMES SALMONELLA TYPHIMURIUM, Strain/Indicator: TA98, Metabolic Activation: HAMSTER, LIVER, S-9, AROCLOR 1254 (30%), Method: PREINCUBATION): inactive; negative | mutagenic call (Test System: AMES SALMONELLA TYPHIMURIUM, Strain/Indicator: TA98, Metabolic Activation: NONE, Method: PREINCUBATION): inactive; negative | mutagenic call [2]: inactive; negative | mutagenic call (Test System: AMES SALMONELLA TYPHIMURIUM, Strain/Indicator: TA98, Metabolic Activation: RAT, LIVER, S-9, AROCLOR 1254 (10%), Method: PREINCUBATION): inactive; negative | mutagenic call (Test System: AMES SALMONELLA TYPHIMURIUM, Strain/Indicator: TA98, Metabolic Activation: RAT, LIVER, S-9, AROCLOR 1254 (30%), Method: PREINCUBATION): inactive; negative | mutagenic call (Test System: AMES SALMONELLA TYPHIMURIUM, Strain/Indicator: TA98, Metabolic Activation: RAT, LIVER, S-9, AROCLOR 1254, Method: PREINCUBATION): inactive; negative | mutagenic call (Test System: AMES SALMONELLA TYPHIMURIUM, Strain/Indicator: TA98, Metabolic Activation: S-9, Method: STANDARD PLATE): inactive; negative | mutagenic call (Test System: AMES SALMONELLA TYPHIMURIUM, Strain/Indicator: TA100, Metabolic Activation: HAMSTER, LIVER, S-9, AROCLOR 1254 (10%), Method: PREINCUBATION): inactive; negative | mutagenic call (Test System: AMES SALMONELLA TYPHIMURIUM, Strain/Indicator: TA100, Metabolic Activation: HAMSTER, LIVER, S-9, AROCLOR 1254 (30%), Method: PREINCUBATION): inactive; negative | mutagenic call (Test System: AMES SALMONELLA TYPHIMURIUM, Strain/Indicator: TA100, Metabolic Activation: NONE, Method: PREINCUBATION): inactive; negative | mutagenic call [3]: inactive; negative | mutagenic call (Test System: AMES SALMONELLA TYPHIMURIUM, Strain/Indicator: TA100, Metabolic Activation: RAT, LIVER, S-9, AROCLOR 1254 (10%), Method: PREINCUBATION): inactive; negative | mutagenic call (Test System: AMES SALMONELLA TYPHIMURIUM, Strain/Indicator: TA100, Metabolic Activation: RAT, LIVER, S-9, AROCLOR 1254 (30%), Method: PREINCUBATION): inactive; negative | mutagenic call (Test System: AMES SALMONELLA TYPHIMURIUM, Strain/Indicator: TA100, Metabolic Activation: RAT, LIVER, S-9, AROCLOR 1254, Method: PREINCUBATION): inactive; negative | mutagenic call (Test System: AMES SALMONELLA TYPHIMURIUM, Strain/Indicator: TA100, Metabolic Activation: S-9, Method: STANDARD PLATE): inactive; negative | mutagenic call (Test System: AMES SALMONELLA TYPHIMURIUM, Strain/Indicator: TA102, Metabolic Activation: HAMSTER, LIVER, S-9, AROCLOR 1254 (10 OR 30%), Method: PREINCUBATION): inactive; negative | mutagenic call [4]: inactive; negative | mutagenic call (Test System: AMES SALMONELLA TYPHIMURIUM, Strain/Indicator: TA102, Metabolic Activation: RAT, LIVER, S-9, AROCLOR 1254 (10%), Method: PREINCUBATION): inactive; negative | mutagenic call (Test System: AMES SALMONELLA TYPHIMURIUM, Strain/Indicator: TA102, Metabolic Activation: RAT, LIVER, S-9, AROCLOR 1254 (30%), Method: PREINCUBATION): inactive; negative | mutagenic call [5]: inactive; negative | mutagenic call (Test System: AMES SALMONELLA TYPHIMURIUM, Strain/Indicator: TA104, Metabolic Activation: HAMSTER, LIVER, S-9, AROCLOR 1254 (5%), Method: PREINCUBATION): inactive; negative | mutagenic call (Test System: AMES SALMONELLA TYPHIMURIUM, Strain/Indicator: TA104, Metabolic Activation: HAMSTER, LIVER, S-9, AROCLOR 1254 (10 OR 30%), Method: PREINCUBATION): inactive; negative | mutagenic call (Test System: AMES SALMONELLA TYPHIMURIUM, Strain/Indicator: TA104, Metabolic Activation: NONE, Method: PREINCUBATION): inactive; negative | mutagenic call (Test System: AMES SALMONELLA TYPHIMURIUM, Strain/Indicator: TA104, Metabolic Activation: RAT, LIVER, S-9, AROCLOR 1254 (5%), Method: PREINCUBATION): inactive; negative | mutagenic call (Test System: AMES SALMONELLA TYPHIMURIUM, Strain/Indicator: TA104, Metabolic Activation: RAT, LIVER, S-9, AROCLOR 1254 (10 OR 30%), Method: PREINCUBATION): inactive; negative | mutagenic call (Test System: AMES SALMONELLA TYPHIMURIUM, Strain/Indicator: TA1535, Metabolic Activation: HAMSTER, LIVER, S-9, AROCLOR 1254 (10 OR 30%), Method: PREINCUBATION): inactive; negative | mutagenic call (Test System: AMES SALMONELLA TYPHIMURIUM, Strain/Indicator: TA1535, Metabolic Activation: NONE, Method: PREINCUBATION): inactive; negative | mutagenic call (Test System: AMES SALMONELLA TYPHIMURIUM, Strain/Indicator: TA1535, Metabolic Activation: RAT, LIVER, S-9, AROCLOR 1254 (10 OR 30%), Method: PREINCUBATION): inactive; negative
